Data from patent US20070270462A1, “8-hydroxyquinoline compounds for treating a polyglutamine (polyQ)-expansion disease” (priority 2005, published 2007).
Marks after values point to notes of the source that are not given here.

Tests used:
R6/2 mice [1] = assay: Fasting blood insulin in R6/2 mice (ELISA); type: in vivo, mouse; conditions: 11-week old R6/2 mice
Procedure: (§1) A colony of transgenic mice strain R6/2 that is heterozygous for htt exon1 (containing 145 CAG repeats) was maintained, with founders originating and available from The Jackson Laboratory (Bar Harbor, Me., USA). Male transgenic R6/2 mice were bred with background strain (B6CBAFI/J) females. Genotyping was done according to Hockly et al, Brain Res Bull 61, 469-479, 2003. CQ in water was orally administered to mice at 30 mg/kg/day starting at 3 weeks of age and continued until the mice were deceased or sacrificed for tissues. Littermate R6/2 mice were gavaged with water vehicle alone. At the end of CQ treatment mice were anesthetized and transcardially perfused with PBS followed by 4% v/v paraformaldehyde. Blood glucose levels were determined after at least 8 hrs of fasting in 11-week old mice (n=6 for wild-type, n=4 for vehicle-treated R6/2, n=6 for CQ-treated R6/2 littermates) using a 2300 STAT Plus glucose analyzer (YSI, Yellowsonte, Ohio, USA). Fasting blood insulin levels in animals fasted for 8 hrs were measured using an Ultra Sensitive Rat Insulin ELISA Kit (Crystal Chem, Inc., Downers Grove, Ill., USA) according to manufacturer's instructions.
(§2) Consistent with the blood glucose level was a reciprocal change in blood insulin levels.
(§3) Data are mean+s.e.m. n≧4 for each treatment group. *P<0.0004 for glucose, **P=0.0065 for insulin levels comparing vehicle and CQ-treated groups.

aggregated huntingtin = assay: Western blotting of aggregated huntingtin in whole-brain extracts of R6/2 mice; type: in vivo, mouse; conditions: 8 weeks daily oral CQ 30 mg/kg/day
Procedure: Whole mouse brains were homogenized in 50 mM Tris-HCl (pH 7.4), 150 mM NaCl, 1% v/v Triton X-100 and complete protease inhibitor cocktail. Brain homogenate was pre-cleared by centrifuging at 7,500 g for 90 s at 4° C. The supernatant was passed through a 28-gauge needle and boiled in SDS sample buffer for 10 min. Fifty μg of total protein was loaded onto 10% w/v SDS gel containing a 4% w/v stacking gel. Monoclonal antibodies anti-polyglutamine (1:2,000), anti-GAPDH (1:10,000), anti-GFP (1:4,000), and anti-Htt (EM48) in 1:1000 dilution were used for immunoblotting. All western blot experiments were performed at least three times and band intensities were averaged.

egfp-alone [2] = assay: Western blotting of cell extracts, egfp-alone expression; type: cell-based
Text: (§4) PolyQ-htt-GFP fusion constructs, in which the polyglutamine region is encoded by CAA and CAG-containing tandem repeats ([…]) [SEQ ID NO: 1], human polyglutaminen, were obtained from the Hereditary Disease Foundation, Santa Monica, Calif., USA. PC12 and HEK293 cells were maintained in MEM supplemented with 10% v/v FBS, switched to Opti-MEM without serum for 6 hrs during transfection using Lipofectamine 2000 (Invitrogen, Carlsbad, Calif., USA), and returned to serum-containing medium thereafter (up to 48 hours). […] Control cultures received equivalent amounts of DMSO-containing vehicle (<0.1% w/v DMSO, final concentration).
HEK293 or PC12 cells were lysed in PBS buffer containing 1% v/v Triton X-100 and protease inhibitor cocktail (Roche, Indianapolis, Ind.), and passed through a 28 gauge needle to ensure the release of Htt inclusions from the nuclei. Whole mouse brains were homogenized in 50 mM Tris-HCl (pH 7.4), 150 mM NaCl, 1% v/v Triton X-100 and complete protease inhibitor cocktail. Brain homogenate was pre-cleared by centrifuging at 7,500 g for 90 s at 4° C. The supernatant was passed through a 28-gauge needle and boiled in SDS sample buffer for 10 min. Fifty μg of total protein was loaded onto 10% w/v SDS gel containing a 4% w/v stacking gel. […]

Alzheimer's disease = conditions: phase II clinical trial; cited from earlier work
R6/2 mice [3] = assay: Fasting blood glucose in R6/2 mice; type: in vivo, mouse; conditions: 11-week old R6/2 mice after 8 weeks of CQ treatment, mean ± s.e.m.
Procedure: as §1, §2, §3

egfp-alone [4] = assay: Fluorescence microscopy of transfected PC12 cells expressing egfp alone; type: cell-based; conditions: CQ 4 μM, 48 hours post-transfection
Text: as §4
(§5) Concordant with this reduction in mutant protein expression, cell survival was improved by CQ in a dose dependent fashion with a half maximal effect at 1-2 μM (FIG. 2b). Cell death began to increase at 8 μM, likely due to dose-dependent toxic effects of CQ.

Htt exon1-Q103-egfp = assay: Fluorescence microscopy of transiently transfected PC12 cells expressing Htt exon1-Q103-egfp; type: cell-based; conditions: CQ 4 μM, 48 hours post-transfection
Text: as §4, §5

SMILES: Oc1c(I)cc(Cl)c2cccnc12 [CQ, 5-chloro-7-iodo-8-hydroxy-quinoline]
- fasting blood insulin level (R6/2 mice [1]; CQ treated group): 415 ± 54.6 pg/mL
- Insulin level (R6/2 mice [1]; fasting, CQ-treated, mean ± s.e.m. (Table 3)): 415 ± 54.60** pg/ml
- reduction in the quantity of aggregated huntingtin (aggregated huntingtin): 3.9 fold
- inhibition of egfp-alone expression (egfp-alone [2]): not observed
- CQ toxicity (Alzheimer's disease): no significant CQ toxicity
- effects on Alzheimer's disease (Alzheimer's disease): early positive effects
- fasting blood glucose level (R6/2 mice [3]): 4.1 ± 0.3 mM
- fluorescent product of egfp-alone (egfp-alone [4]): unaffected
- fluorescent product of Htt exon1-Q103-egfp (Htt exon1-Q103-egfp): less fluorescent product
